Assay results as given in ChEMBL document CHEMBL3885861, “Open TG-GATES”.

Species: Rattus norvegicus
Assay: Open TG-GATES - Regimen: Single
Assay type: toxicity, organism-based, Sprague-Dawley
Set-up: regimen Single, gender Male, age 6 weeks
Details: in vivo, iv, 40 mg/kg, route intravenous injection, dose level Middle; for APTT / Bas / Eos / Fbg / Hb / Ht / Lym / MCH / MCHC / MCV / Mono / Neu / PT / Plat / RBC / Ret / WBC: tissue Blood; for KIDNEY_L / KIDNEY_R / KIDNEY_TOTAL: tissue Kidney; for LIVER: tissue Liver; for A/G / ALP / ALT / AST / BUN / CRE / Ca / Cl / DBIL / GLC / IP / K / LDH / Na / PL / RALB / TBIL / TC / TG / TP / gamma-GTP: tissue Plasma

Work on `CN(C)c1ncnc2c1ncn2[C@@H]1O[C@H](CO)[C@@H](N)[C@H]1O` [PUROMYCIN AMINONUCLEOSIDE] yielded a TERMINAL_BW (3 h) of 219 g, an APTT (3 h) of 21.1 s and a Bas (3 h) of 0%. The Eos (3 h) was 0.4%, the Fbg (3 h) was 283.6 mg/dL and the Hb (3 h) was 12.7 g/dL. The Ht (3 h) was 38%, the Lym (3 h) was 55.6% and the MCH (3 h) was 21.2 pg. For the same compound, the MCHC (3 h) was 33.6%, the MCV (3 h) was 63.3 fL and the Mono (3 h) was 4.2%. It also gave a Neu (3 h) of 38%, a PT (3 h) of 16.2 s and a Plat (3 h) of 115.8 x10_4/uL. The RBC (3 h) was 600.8 x10_4/ul, the Ret (3 h) was 6.9% and the WBC (3 h) was 148.2 x10_2/uL. For the same compound, the KIDNEY_L (3 h) was 0.9 g, the KIDNEY_R (3 h) was 1 g and the KIDNEY_TOTAL (3 h) was 1.9 g. It also gave an LIVER (3 h) of 9.9 g, an A/G (3 h) of 1.2 and an ALP (3 h) of 1624.6 IU/L. It also gave an ALT (3 h) of 39.2 IU/L, an AST (3 h) of 74 IU/L and a BUN (3 h) of 14.2 mg/dL. For the same compound, the CRE (3 h) was 0.2 mg/dL, the Ca (3 h) was 11.2 mg/dL and the Cl (3 h) was 105 meq/L. It also gave a DBIL (3 h) of 0.002 mg/dL, a GLC (3 h) of 177 mg/dL and an IP (3 h) of 8 mg/dL. The K (3 h) was 4.3 meq/L, the LDH (3 h) was 163.4 IU/L and the Na (3 h) was 140.6 meq/L. It also gave a PL (3 h) of 149 mg/dL, an RALB (3 h) of 2.9 g/dL and a TBIL (3 h) of 0.014 mg/dL. For the same compound, the TC (3 h) was 76.2 mg/dL, the TG (3 h) was 127.8 mg/dL and the TP (3 h) was 5.3 g/dL. For the same compound, the gamma-GTP (3 h) was 1 IU/L, the TERMINAL_BW (6 h) was 216.4 g and the APTT (6 h) was 22.5 s. It also gave a Bas (6 h) of 0%, an Eos (6 h) of 0.6% and a Fbg (6 h) of 317.6 mg/dL. For the same compound, the Hb (6 h) was 13 g/dL, the Ht (6 h) was 39% and the Lym (6 h) was 57.2%. For the same compound, the MCH (6 h) was 21 pg, the MCHC (6 h) was 33.5% and the MCV (6 h) was 62.8 fL. The Mono (6 h) was 3.4%, the Neu (6 h) was 37.8% and the PT (6 h) was 15.6 s. For the same compound, the Plat (6 h) was 134.5 x10_4/uL, the RBC (6 h) was 620.8 x10_4/ul and the Ret (6 h) was 6.9%. The WBC (6 h) was 125.7 x10_2/uL, the KIDNEY_L (6 h) was 1 g and the KIDNEY_R (6 h) was 1 g. For the same compound, the KIDNEY_TOTAL (6 h) was 1.9 g, the LIVER (6 h) was 9.6 g and the A/G (6 h) was 1.3. It also gave an ALP (6 h) of 1345.2 IU/L, an ALT (6 h) of 38.2 IU/L and an AST (6 h) of 68.6 IU/L. The BUN (6 h) was 12.8 mg/dL, the CRE (6 h) was 0.1 mg/dL and the Ca (6 h) was 11.2 mg/dL. For the same compound, the Cl (6 h) was 104.2 meq/L, the DBIL (6 h) was 0 mg/dL and the GLC (6 h) was 175.2 mg/dL. The IP (6 h) was 9.6 mg/dL, the K (6 h) was 4.3 meq/L and the LDH (6 h) was 166.6 IU/L. For the same compound, the Na (6 h) was 139.2 meq/L, the PL (6 h) was 149.2 mg/dL and the RALB (6 h) was 3 g/dL. The TBIL (6 h) was 0.024 mg/dL, the TC (6 h) was 78.4 mg/dL and the TG (6 h) was 81.6 mg/dL. The TP (6 h) was 5.4 g/dL, the gamma-GTP (6 h) was 1.2 IU/L and the TERMINAL_BW (9 h) was 210.8 g. The APTT (9 h) was 21.5 s, the Bas (9 h) was 0% and the Eos (9 h) was 1%. It also gave a Fbg (9 h) of 315.4 mg/dL, a Hb (9 h) of 13 g/dL and a Ht (9 h) of 38.9%. The Lym (9 h) was 62%, the MCH (9 h) was 20.6 pg and the MCHC (9 h) was 33.4%. The MCV (9 h) was 61.7 fL, the Mono (9 h) was 2.2% and the Neu (9 h) was 34.6%. The PT (9 h) was 15.9 s, the Plat (9 h) was 132.8 x10_4/uL and the RBC (9 h) was 631.6 x10_4/ul. The Ret (9 h) was 7.2%, the WBC (9 h) was 96.5 x10_2/uL and the KIDNEY_L (9 h) was 0.9 g. It also gave a KIDNEY_R (9 h) of 0.9 g, a KIDNEY_TOTAL (9 h) of 1.9 g and an LIVER (9 h) of 8.7 g. The A/G (9 h) was 1.3, the ALP (9 h) was 1104.4 IU/L and the ALT (9 h) was 35.8 IU/L. For the same compound, the AST (9 h) was 67 IU/L, the BUN (9 h) was 12.6 mg/dL and the CRE (9 h) was 0.1 mg/dL. The Ca (9 h) was 11.1 mg/dL, the Cl (9 h) was 104.2 meq/L and the DBIL (9 h) was 0.002 mg/dL. It also gave a GLC (9 h) of 176.6 mg/dL, an IP (9 h) of 10.3 mg/dL and a K (9 h) of 4.6 meq/L. The LDH (9 h) was 146 IU/L, the Na (9 h) was 139.6 meq/L and the PL (9 h) was 145.4 mg/dL. It also gave an RALB (9 h) of 3.1 g/dL, a TBIL (9 h) of 0.024 mg/dL and a TC (9 h) of 76.4 mg/dL. It also gave a TG (9 h) of 103.8 mg/dL, a TP (9 h) of 5.5 g/dL and a gamma-GTP (9 h) of 1.6 IU/L. For the same compound, the TERMINAL_BW (24 h) was 217.2 g, the APTT (24 h) was 20.8 s and the Bas (24 h) was 0%. For the same compound, the Eos (24 h) was 0.8%, the Fbg (24 h) was 315.4 mg/dL and the Hb (24 h) was 13 g/dL. It also gave a Ht (24 h) of 37.9%, a Lym (24 h) of 85% and an MCH (24 h) of 21.3 pg. It also gave an MCHC (24 h) of 34.3%, an MCV (24 h) of 62 fL and a Mono (24 h) of 3%. The Neu (24 h) was 10.2%, the PT (24 h) was 15.9 s and the Plat (24 h) was 116 x10_4/uL. It also gave an RBC (24 h) of 613.4 x10_4/ul, a Ret (24 h) of 6% and a WBC (24 h) of 71.4 x10_2/uL. The KIDNEY_L (24 h) was 1 g, the KIDNEY_R (24 h) was 1 g and the KIDNEY_TOTAL (24 h) was 2 g. For the same compound, the LIVER (24 h) was 9.9 g, the A/G (24 h) was 1.3 and the ALP (24 h) was 1315 IU/L. For the same compound, the ALT (24 h) was 46 IU/L, the AST (24 h) was 73 IU/L and the BUN (24 h) was 19.6 mg/dL. The CRE (24 h) was 0.2 mg/dL, the Ca (24 h) was 11.4 mg/dL and the Cl (24 h) was 103.2 meq/L. It also gave a DBIL (24 h) of 0.002 mg/dL, a GLC (24 h) of 179.2 mg/dL and an IP (24 h) of 10 mg/dL. The K (24 h) was 4.5 meq/L, the LDH (24 h) was 186.2 IU/L and the Na (24 h) was 140.6 meq/L. It also gave a PL (24 h) of 142 mg/dL, an RALB (24 h) of 3.1 g/dL and a TBIL (24 h) of 0.016 mg/dL. It also gave a TC (24 h) of 75 mg/dL, a TG (24 h) of 89.4 mg/dL and a TP (24 h) of 5.6 g/dL. It also gave a gamma-GTP (24 h) of 1.6 IU/L.
